Assay results from patent US10894817B2, “Fatty acid modified urocortin-2 analogs for the treatment of diabetes and chronic kidney disease” (priority 2016, dated 2021).
Read-outs that look alike come from different tables or passages of the source. Starred links: 1 amine or outer side, 2 acyl side, 3 side chain; linkers in the order of their positions; H or OH if unused. Non-standard residues stand in square brackets, D forms with d. Residues, ends and D or L forms follow the SMILES beside them. Groups on a side chain read outwards from the residue. *: point of attachment. C20 diacid = O=C(O)CCCCCCCCCCCCCCCCCCC(=O)*; γGlu = O=C(O)[C@H](CCC(=O)[*:2])N[*:1]; NMeI = CC[C@H](C)[C@H](NC)C(=O)O; AEEA = NCCOCCOCC(=O)O

How the values were obtained:
[1] = cynomolgus monkey, in vivo, iv, 96.4 nmol/kg, T1/2
Experimental: Plasma concentrations of compounds were determined by LC/MS methods. Each method measured the intact compound; peptide plus linked time extension. […] Two distinct layers were formed upon centrifugation with the compound and the IS located in the supernatant layer. An aliquot of the supernatant (80 μl) was transferred to a Thermo Protein Precipitation Plate with water (150 μl) and formic acid (25 μl) followed by mixing. A final 31% acetonitrile in 10% formic acid sample (10 μl) was loaded onto a Supelco Analytical Discovery BIO Wide Pore C5-3 column (5 cm×1 mm, 3 μm). The column effluent was directed into a Thermo Q-Exactive mass spectrometer for detection and quantitation.
(§1) Male Cynomolgus monkeys were administered a single subcutaneous dose or intravenous dose (96.4 nmol/kg) of a compound described herein in 20 mM Tris-HCl Buffer (pH 7) at a volume of 1 mL/kg. Blood was collected from each animal at 2, 6, 24, 48, 72, 96, 168, 240, 336, 408, and 504 hours postdose for pharmacokinetic characterization.

[2] = cynomolgus monkey, in vivo, sc, 96.4 nmol/kg
Experimental: Plasma concentrations of compounds were determined by LC/MS methods. Each method measured the intact compound; peptide plus linked time extension. For each assay, the compound and an analog, used as an internal standard (IS), were extracted from 100% mouse, rat or monkey plasma (25 μl) using acetonitrile. Two distinct layers were formed upon centrifugation with the compound and the IS located in the supernatant layer. An aliquot of the supernatant (80 μl) was transferred to a Thermo Protein Precipitation Plate with water (150 μl) and formic acid (25 μl) followed by mixing. A final 31% acetonitrile in 10% formic acid sample (10 μl) was loaded onto a Supelco Analytical Discovery BIO Wide Pore C5-3 column (5 cm×1 mm, 3 μm). The column effluent was directed into a Thermo Q-Exactive mass spectrometer for detection and quantitation.
as §1
Male Cynomolgus monkeys were also administered a single subcutaneous dose (50 nmol/kg) of a compound described herein in 20 mM Tris-HCl Buffer (pH 8) at a volume of 0.26 mL/kg. Blood was collected from each animal at 3, 6, 12, 24, 48, 72, 96, 120, 168, 192, 240, 336, 408, and 504 hours postdose for pharmacokinetic characterization.

[3] = system: UniNx db/db AAV renin mice; test: Uninephrectomized db/db AAV renin model of diabetic nephropathy; format: in vivo
Experimental: The uninephrectomized db/db adeno-associated viral (AAV) renin model represents a progressive model of diabetic kidney disease with hypertension driven by an AAV renin transgene (Am J Physiol Regul Integr Comp Physiol. 309(5):R467-74, (2015)).
The uninephrectomy (UniNx) surgery on female db/db mice on a C57BLKS/J background (obtained from Harlan Laboratories) is performed by Harlan Laboratories at 4 weeks of age with removal of the right kidney to accelerate the diabetic kidney disease. Animals are received at 5 weeks of age and housed in micro-isolator cages at 3 mice per cage and are on a 12 hour light/dark cycle. All db/db mice are fed ad libitum with Purina special diet 5008 and allowed free access to autoclaved water.
Mice are acclimated for 7 weeks prior to administration of AAV Renin (5×10^9 GC) intravenously by the retro-orbital sinus to induce persistent hypertension. Randomization by urine albumin to creatinine ratio (ACR), blood glucose and body weight is done at 15 weeks of age (a point at which renal disease and pathology are established in this model based on observations) into 2 groups of 12 saline control mice and 33 mice to receive Lisinopril treatment.
Dosing with Lisinopril (30 mg/L) begins at 16 weeks of age. After 2 weeks of Lisinopril treatment, the 33 mice are randomized by urine ACR, blood glucose and body weight into 4 groups (one group of 9 mice and 3 groups of 8 mice).
In the 4 groups of UniNx db/db AAV renin mice receiving Lisinopril treatment, either 0.9% physiological saline for injection (“saline control” N=9) or different dose levels of Example 4 (7.2, 24 or 72 nmol/kg, N=8 per dose level) are dosed at 0.2 mL s.c. per injection beginning at 18 weeks of age and continued 3 times weekly for 12 weeks. Albumin and creatinine are measured in urine with a Roche Hitachi Modular Analytics P analyzer with Roche reagents for detection of albumin and creatinine.
For all the groups, the parameters measured are body weight, kidney weight, heart weight, urine albumin to creatinine ratio, serum creatinine and renal pathology scores for mesangial matrix expansion, glomerular fibrosis, tubular regeneration, interstitial inflammation and interstitial fibrosis.
At 15 and 27 weeks of age, blood (30 to 50 uL) from all the UniNx db/db AAV Renin mice is obtained from the tail vein and dropped onto a Precision PCx blood glucose sensor electrode strip (Abbott Laboratories) for blood glucose determination with a MediSense Precision PCx glucometer (Abbott Laboratories). Blood glucose data is used to block the UniNx db/db mice into equivalent groups. Body weight is determined at baseline and at termination with a Metler Toledo Balance. The heart and kidney are removed at necropsy and weighed on a Metler Toledo Balance. Blood (500 ul) is collected from the retro-orbital sinus at termination under isoflurane anesthesia. The clotted blood is centrifuged to obtain serum. Serum is analyzed for creatinine on a Roche Hitachi Modular Analytics P analyzer with reagents from Roche.
Urine is collected by a spot collection method to collect urine over a 2-4 hr time period. An individual mouse is placed on top of a 96 well polypropylene microplate and then covered by a Plexiglas chamber with holes for breathing but no access to food or water. At the end of the time period, the urine is removed from the plate with a micropipette and placed on ice, centrifuged and subjected to albumin and creatinine analysis. Urine albumin, creatinine and glucose are determined on a Roche Hitachi Modular Analytics P analyzer. Urine creatinine is determined with the Creatinine Plus reagent by Roche. For urine albumin, the Roche Microalbumin assay is modified to adapt the calibration curve for measuring urine albumin in mice. Albuminuria was defined as albumin to creatinine ratio (ACR).
Kidneys are removed at study termination, fixed in formalin and processed for paraffin sectioning according to standard methodology. […]

remnant kidney mice = test: Mouse remnant kidney model of hypertensive nephropathy (Example 4, 8 weeks); format: in vivo; details: 2.6 nmol/kg dose group
Experimental: A mouse remnant kidney model (“remnant”) involving surgical reduction of ¾ of the entire renal mass is used as a preclinical model of hypertensive renal disease (Kidney Int. 64(1):350-5, (2003)).
Surgical reduction of renal mass (N=32 mice) (obtained by Taconic, Inc.) is performed by Taconic, Inc. in male 129S6 mice at 9-10 weeks of age. Randomization into 4 equivalent groups of 8 remnant kidney mice is done at 17 weeks post-surgery by urine albumin to creatinine ratio (ACR) and body weight. […]
Body weight is determined at baseline and at termination with a Metler Toledo Balance.
The heart and kidney are removed at necropsy and weighed on a Metler Toledo Balance. […] Serum is analyzed for creatinine on a Roche Hitachi Modular Analytics P analyzer with reagents from Roche. […]
Urine albumin and creatinine are determined on a Roche Hitachi Modular Analytics P analyzer. Urine creatinine is determined with the Creatinine Plus reagent by Roche. […]
Remnant kidneys are removed at study termination, fixed in formalin and processed for paraffin sectioning according to standard methodology. Sections of kidney are evaluated for renal lesions by a board certified pathologist. […]
Pathology data are statistically evaluated with R software by fitting an ordered logit model to the categorical scores, and then comparing the differences between different treatment groups. […]

Compound	half-life [1]	CL/F ([2]; CL/F)	half-life ([2]; T1/2)	deaths over the course of the study ([3]; Lisinopril plus 7.2 nmol/kg Example 4 group (N=8))	deaths over the course of the study ([3]; Lisinopril plus 24 nmol/kg Example 4 group (N=8))	deaths over the course of the study ([3]; Lisinopril plus 72 nmol/kg Example 4 group (N=8))	deaths during the study (remnant kidney mice)
CC[C@H](C)[C@H](NC(C)=O)C(=O)N[C@H](C(=O)N[C@@H](CC(C)C)C(=O)N[C@@H](CO)C(=O)N[C@@H](CC(C)C)C(=O)N[C@@H](CC(=O)O)C(=O)N[C@H](C(=O)N1CCC[C@H]1C(=O)N[C@H](C(=O)NCC(=O)N[C@@H](CC(C)C)C(=O)N[C@@H](CC(C)C)C(=O)N[C@@H](CCC(N)=O)C(=O)N[C@H](C(=O)N[C@@H](CC(C)C)C(=O)N[C@@H](CC(C)C)C(=O)N[C@@H](CCC(=O)O)C(=O)N[C@@H](CCC(N)=O)C(=O)N[C@@H](CCC(=O)O)C(=O)N[C@@H](CCCCN)C(=O)N[C@@H](CCC(N)=O)C(=O)N[C@@H](CCC(=O)O)C(=O)N[C@@H](CCCCN)C(=O)N[C@@H](CCC(=O)O)C(=O)N[C@@H](CCCCN)C(=O)N[C@@H](CCC(N)=O)C(=O)N[C@@H](CCC(N)=O)C(=O)N[C@@H](C)C(=O)N[C@@H](CCCCNC(=O)COCCOCCNC(=O)COCCOCCNC(=O)CC[C@H](NC(=O)CC[C@H](NC(=O)CCCCCCCCCCCCCCCCCCC(=O)O)C(=O)O)C(=O)O)C(=O)N[C@H](C(=O)N[C@@H](CC(N)=O)C(=O)N[C@@H](C)C(=O)N[C@@H](CCC(N)=O)C(=O)N[C@H](C(=O)N[C@@H](CC(C)C)C(=O)N[C@@H](C)C(=O)N[C@@H](CCC(N)=O)C(=O)N[C@H](C(N)=O)C(C)C)[C@@H](C)CC)[C@@H](C)O)[C@@H](C)CC)[C@@H](C)CC)C(C)C)C(C)C [Example 2] (Ac-IVLSLDVPIGLLQILLEQEKQEKEKQQAK([AEEA-AEEA-γGlu-γGlu-C20 diacid])TNAQILAQV-NH2)	124 h	9.84 mL/day/kg	97 h				
CC[C@H](C)[C@H](NC)C(=O)N[C@H](C(=O)N[C@@H](CC(C)C)C(=O)N[C@@H](CO)C(=O)N[C@@H](CC(C)C)C(=O)N[C@@H](CC(=O)O)C(=O)N[C@H](C(=O)N1CCC[C@H]1C(=O)N[C@H](C(=O)NCC(=O)N[C@@H](CC(C)C)C(=O)N[C@@H](CC(C)C)C(=O)N[C@@H](CCC(N)=O)C(=O)N[C@H](C(=O)N[C@@H](CC(C)C)C(=O)N[C@@H](CC(C)C)C(=O)N[C@@H](CCC(=O)O)C(=O)N[C@@H](CCC(N)=O)C(=O)N[C@@H](CCC(=O)O)C(=O)N[C@@H](CCCCN)C(=O)N[C@@H](CCC(N)=O)C(=O)N[C@@H](CCC(=O)O)C(=O)N[C@@H](CCCCN)C(=O)N[C@@H](CCC(=O)O)C(=O)N[C@@H](CCCCN)C(=O)N[C@@H](CCC(N)=O)C(=O)N[C@@H](CCC(N)=O)C(=O)N[C@@H](C)C(=O)N[C@@H](CCCCNC(=O)COCCOCCNC(=O)COCCOCCNC(=O)CC[C@H](NC(=O)CC[C@H](NC(=O)CCCCCCCCCCCCCCCCCCC(=O)O)C(=O)O)C(=O)O)C(=O)N[C@H](C(=O)N[C@@H](CC(N)=O)C(=O)N[C@@H](C)C(=O)N[C@@H](CCC(N)=O)C(=O)N[C@H](C(=O)N[C@@H](CC(C)C)C(=O)N[C@@H](C)C(=O)N[C@@H](CCC(N)=O)C(=O)N[C@H](C(N)=O)C(C)C)[C@@H](C)CC)[C@@H](C)O)[C@@H](C)CC)[C@@H](C)CC)C(C)C)C(C)C [Example 4] (H-[NMeI]VLSLDVPIGLLQILLEQEKQEKEKQQAK([AEEA-AEEA-γGlu-γGlu-C20 diacid])TNAQILAQV-NH2)				1	3	3	one
